Results as given in PMC9403976, “Elucidating the path to Plasmodium prolyl-tRNA synthetase inhibitors that overcome halofuginone resistance” (Nature Communications, 2022).
Several values for one entry are separate records, joined by “and”; a condition that tells them apart may be missing. Identical values can stand only once.

Key:
HsProRS = HsProRS (Homo sapiens, UniProt P07814); assay: TR-FRET ligand displacement assay with tracer MAT379 (CoraFluor-1-Halo and anti-His6 antibody formats); format: binding; parameters: made in house; host or cells: E. coli SoluBL-21; conditions: SI Fig 15, listed as NCP26 (3)
Chain of HsProRS (P07814 996-1512): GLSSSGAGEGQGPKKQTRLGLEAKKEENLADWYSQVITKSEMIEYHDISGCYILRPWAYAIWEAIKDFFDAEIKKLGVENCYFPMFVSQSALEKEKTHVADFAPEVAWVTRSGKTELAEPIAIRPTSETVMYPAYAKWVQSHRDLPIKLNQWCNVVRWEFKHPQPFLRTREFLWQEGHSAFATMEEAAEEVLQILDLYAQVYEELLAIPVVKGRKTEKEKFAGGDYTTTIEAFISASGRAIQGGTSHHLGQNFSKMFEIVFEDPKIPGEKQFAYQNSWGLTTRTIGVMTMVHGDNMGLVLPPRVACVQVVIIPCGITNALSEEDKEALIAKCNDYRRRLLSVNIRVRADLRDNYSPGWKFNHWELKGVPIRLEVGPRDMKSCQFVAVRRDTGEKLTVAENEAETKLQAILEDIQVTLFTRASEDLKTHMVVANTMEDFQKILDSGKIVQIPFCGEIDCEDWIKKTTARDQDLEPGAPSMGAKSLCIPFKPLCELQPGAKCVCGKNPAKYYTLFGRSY

P. falciparum Dd2-2D4 = assay: P. falciparum asexual blood stage (ABS) growth assay, SYBR Green, 72 h, wild-type parasites; format: cell-based, Plasmodium falciparum; conditions: for ABS growth dose-response, normalized signal (Replicates 1-3) / parasite growth, replicate wells (Fig 1b): Dd2-2D4
[1] = system: halofuginone-induced P. falciparum (elevated proline homeostasis); assay: P. falciparum ABS growth assay, SYBR Green, 72 h, halofuginone-induced parasites; format: cell-based, Plasmodium falciparum; conditions: Halofuginone-Induced
Outline: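 Dd2-derived P. falciparum lines (HFGR-I, halofuginone-induced) at 1% parasitemia and 1% hematocrit in RPMI + 0.5% Albumax were exposed to compounds in triplicate dose-response for 72 h. Growth was read as SYBR Green 1 fluorescence, with 10 μM dihydroartemisinin as kill control and compound-free wells as growth control.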

With O=C(NC1Cc2ccccc2C1)c1nccnc1NC(=O)N1CCCCC1 [NCP26] the “normalized TR-FRET signal (dose-response replicates)” value (shortened to “normalized TR-FRET signal”) (HsProRS; Log[inhibitor] (M) -4.99976) was 2.27E-01 and 3.58E-01 and 2.56E-01, the “normalized TR-FRET signal” value (HsProRS; Log[inhibitor] (M) -5.3009) was 5.51E-01 and 1.03E-01 and 3.27E-01 and the “normalized TR-FRET signal” value (HsProRS; Log[inhibitor] (M) -5.60199) was 6.05E-01 and 4.05E-01 and 4.39E-01. The “normalized TR-FRET signal” value (HsProRS; Log[inhibitor] (M) -5.90248) was 4.42E-01 and 6.91E-01 and 6.09E-01, the “normalized TR-FRET signal” value (HsProRS; Log[inhibitor] (M) -6.20323) was 4.30E-01 and 8.03E-01 and 7.35E-01 and the “normalized TR-FRET signal” value (HsProRS; Log[inhibitor] (M) -6.51347) was 8.28E-01 and 6.81E-01 and 6.14E-01. For the same molecule, the “normalized TR-FRET signal” value (HsProRS; Log[inhibitor] (M) -6.79595) was 1.04E+00 and 6.14E-01 and 1.23E+00, the “normalized TR-FRET signal” value (HsProRS; Log[inhibitor] (M) -7.10794) was 8.29E-01 and 9.88E-01 and 1.04E+00 and the “normalized TR-FRET signal” value (HsProRS; Log[inhibitor] (M) -7.40526) was 1.19E+00 and 8.56E-01 and 7.59E-01. The “normalized TR-FRET signal” value (HsProRS; Log[inhibitor] (M) -7.7137) was 9.63E-01 and 9.49E-01 and 1.37E+00, the “normalized TR-FRET signal” value (HsProRS; Log[inhibitor] (M) -8) was 8.45E-01 and 9.90E-01 and 8.83E-01 and the “normalized TR-FRET signal” value (HsProRS; Log[inhibitor] (M) -8.331) was 9.93E-01 and 9.01E-01 and 8.86E-01. The “normalized TR-FRET signal” value (HsProRS; Log[inhibitor] (M) -8.57403) was 9.84E-01 and 9.89E-01 and 1.13E+00, the “normalized TR-FRET signal” value (HsProRS; Log[inhibitor] (M) -8.87506) was 9.25E-01 and 9.80E-01 and 7.66E-01 and the “normalized TR-FRET signal” value (HsProRS; Log[inhibitor] (M) -9.17609) was 7.05E-01 and 1.05E+00 and 1.13E+00. The “ABS growth dose-response, normalized signal (Replicates 1-3)” value (P. falciparum Dd2-2D4; Log[inhibitor] (M) -4.699) was 0, the “parasite growth, replicate wells (Fig 1b)” value (“parasite growth” for short) (P. falciparum Dd2-2D4; Log[inhibitor] (M) -4.699) was 0.00E+00 and the “ABS growth dose-response, normalized signal (Replicates 1-3)” value (P. falciparum Dd2-2D4; Log[inhibitor] (M) -5.000) was 0. The “parasite growth” value (P. falciparum Dd2-2D4; Log[inhibitor] (M) -5.000) was 0.00E+00, the “ABS growth dose-response, normalized signal (Replicates 1-3)” value (P. falciparum Dd2-2D4; Log[inhibitor] (M) -5.301) was 0 and the “parasite growth” value (P. falciparum Dd2-2D4; Log[inhibitor] (M) -5.301) was 0.00E+00. The “ABS growth dose-response, normalized signal (Replicates 1-3)” value (P. falciparum Dd2-2D4; Log[inhibitor] (M) -5.602) was 0, the “parasite growth” value (P. falciparum Dd2-2D4; Log[inhibitor] (M) -5.602) was 0.00E+00 and the “ABS growth dose-response, normalized signal (Replicates 1-3)” value (P. falciparum Dd2-2D4; Log[inhibitor] (M) -5.903) was 0. For the same molecule, the “parasite growth” value (P. falciparum Dd2-2D4; Log[inhibitor] (M) -5.903) was 0.00E+00, the “ABS growth dose-response, normalized signal (Replicates 1-3)” value (P. falciparum Dd2-2D4; Log[inhibitor] (M) -6.204) was 0 and the “parasite growth” value (P. falciparum Dd2-2D4; Log[inhibitor] (M) -6.204) was 0.00E+00. For the same molecule, the “ABS growth dose-response, normalized signal (Replicates 1-3)” value (P. falciparum Dd2-2D4; Log[inhibitor] (M) -6.505) was 0, the “parasite growth” value (P. falciparum Dd2-2D4; Log[inhibitor] (M) -6.505) was 0.00E+00 and the “parasite growth” value (P. falciparum Dd2-2D4; Log[inhibitor] (M) -6.806, listed as NCP26 (3)) was 6.00E+00 (2×) and 5.00E+00. The “parasite growth” value (P. falciparum Dd2-2D4; Log[inhibitor] (M) -7.107, listed as NCP26 (3)) was 3.30E+01 and 2.80E+01 and 3.00E+01, the “parasite growth” value (P. falciparum Dd2-2D4; Log[inhibitor] (M) -7.408, listed as NCP26 (3)) was 9.50E+01 and 9.40E+01 and 9.90E+01 and the “parasite growth” value (P. falciparum Dd2-2D4; Log[inhibitor] (M) -7.709, listed as NCP26 (3)) was 1.09E+02 and 1.04E+02 and 1.02E+02. For the same molecule, the “ABS growth dose-response, normalized signal (Replicates 1-3)” value (P. falciparum Dd2-2D4; Log[inhibitor] (M) -8.010) was 101, the “parasite growth” value (P. falciparum Dd2-2D4; Log[inhibitor] (M) -8.010) was 1.01E+02 and the EC50 (P. falciparum Dd2-2D4; Plasmodium falciparum, DD2, SI Fig 16b, values on -log scale, read-out: ABS - Dd2-2D4 (converted)) was 67.5 nM. The “parasite growth” value ([1]; Log[inhibitor] (M) -4.699, listed as NCP26 (3)) was 0.00E+00 and -1.00E+00 and -2.00E+00, the “parasite growth” value ([1]; Log[inhibitor] (M) -5.000, listed as NCP26 (3)) was 1.00E+00 (2×) and -1.00E+00 and the “parasite growth” value ([1]; Log[inhibitor] (M) -5.301, listed as NCP26 (3)) was -1.00E+00 (2×) and 7.00E+00. The “parasite growth” value ([1]; Log[inhibitor] (M) -5.602, listed as NCP26 (3)) was 1.00E+00 and 5.00E+00 and 0.00E+00, the “parasite growth” value ([1]; Log[inhibitor] (M) -5.903, listed as NCP26 (3)) was 0.00E+00 and -1.00E+00 (2×) and the “parasite growth” value ([1]; Log[inhibitor] (M) -6.204) was -2.00E+00.
